Laboratory results from patent US20240270762A1, “PENICILLIN-BINDING PROTEIN INHIBITORS” (priority 2021, published 2024).
≈ marks a conversion by molar mass, not a printed value.

Columns and labels:
N. gonorrhoeae WHO G = experiment: Liquid broth MIC in Fastidious broth; conditions: Neisseria gonorrhoeae, read-out: Minimum Inhibitory Concentration, WHO G
Method: Additional antibacterial testing of the series was performed in 8 reference strains of N. gonorrhoeae (ATCC 49226, FA1090, MS 11, WHO G, WHO L, WHO M, WHO K, WHO X, WHO Z, WHO Q, CDC-0197). ATCC 49226, FA1090, MS11, WHO G, WHO L, and WHO M produce wild type or wild-type like PBP2. WHO K, WHO X, WHO Z, WHO Q, and CDC-0197 produce mosaic PBP2. Liquid broth-based assays were used for antibacterial testing of PBP inhibitors in Neisseria gonorrhoeae. Briefly, cryo-preserved bacterial cultures of clinical strains were streaked for isolation on Chocolate Agar (72 g/L (2×) GC Agar Base (BD #228950) and 2% (2×) Hemoglobin was autoclaved at 121° C. for 20 minutes to sterilize. Once cooled to ˜50° C. the 2×GC Agar Base and 2× Hemoglobin solutions are combined and 1% IsoVitaleX Enrichment (BD #211876) was added to the solution). Strains were incubated at 36° C. and 5% CO2 to allow growth of colonies, 24 hours before inoculum preparation. 2-fold serial dilutions of test compounds were conducted in a 96 well plate with a final volume of 75 μL per well at 2-fold the final desired concentration in Fastidious broth (Remel #R07664). For preparation of assay inoculum, a direct suspension was prepared by aseptically swabbing 10-15 colonies from agar plates into culture tubes containing 2 mL of fresh sterile saline. After the dilution plates were set up, direct suspensions were then diluted in a cuvette containing sterile saline and the optical density was measured at 600 nm. Inocula were diluted such that 75 μL of this culture in Fastidious broth results in a starting bacterial concentration of 5×10^5 CFU/mL when added to the dilution plates. The plates were incubated for ˜24 hours at 36° C. and 5% CO2.

[1] = biological target: T1, PBP1a from Acinetobacter baumannii (ATCC 19606) (Acinetobacter baumannii, UniProt A0ABX6CK30); experiment: Bocillin-FL fluorescence polarization competition binding, A. baumannii PBP1a; conditions: fluorescence polarization competition binding assay using Bocillin-FL; read-out: A. baumannii PBP1a Potency
T1 sequence (A0ABX6CK30 1-851): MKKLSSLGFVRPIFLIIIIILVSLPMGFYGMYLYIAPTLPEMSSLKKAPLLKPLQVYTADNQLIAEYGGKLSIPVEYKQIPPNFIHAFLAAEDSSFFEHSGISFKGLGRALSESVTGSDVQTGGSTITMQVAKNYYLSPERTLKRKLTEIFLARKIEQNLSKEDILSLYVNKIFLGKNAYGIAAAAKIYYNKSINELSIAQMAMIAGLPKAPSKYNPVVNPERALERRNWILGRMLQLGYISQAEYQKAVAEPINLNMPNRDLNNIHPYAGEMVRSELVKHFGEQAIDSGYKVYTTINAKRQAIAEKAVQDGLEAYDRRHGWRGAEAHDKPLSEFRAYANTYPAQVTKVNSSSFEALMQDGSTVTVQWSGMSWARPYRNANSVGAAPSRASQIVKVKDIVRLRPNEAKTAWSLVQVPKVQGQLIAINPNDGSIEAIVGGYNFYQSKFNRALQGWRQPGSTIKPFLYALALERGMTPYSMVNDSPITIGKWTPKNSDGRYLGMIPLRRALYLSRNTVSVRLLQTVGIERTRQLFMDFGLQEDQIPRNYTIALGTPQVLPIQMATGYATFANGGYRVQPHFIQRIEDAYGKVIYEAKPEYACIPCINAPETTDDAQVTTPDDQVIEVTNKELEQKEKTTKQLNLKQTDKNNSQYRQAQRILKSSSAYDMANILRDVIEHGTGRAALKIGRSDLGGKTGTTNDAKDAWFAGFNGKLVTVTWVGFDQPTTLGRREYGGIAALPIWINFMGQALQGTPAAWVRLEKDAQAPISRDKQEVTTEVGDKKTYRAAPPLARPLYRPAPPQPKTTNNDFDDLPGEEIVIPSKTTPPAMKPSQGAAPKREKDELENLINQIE
Method in brief: (§1)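 Purified PBP was preincubated with inhibitor (E. coli PBP3 1.5 μM, 30 min; P. aeruginosa PBP3 0.75 μM, A. baumannii PBP3 0.2 μM and PBP1a 1 μM, 15 min), then Bocillin-FL (0.1 μM; 0.05 μM for PBP1a) added and FP read up to 60 min. EC50 = 50% loss of bound probe.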

[2] = biological target: T2, PBP3 from Acinetobacter baumannii (ATCC 19606) (Acinetobacter baumannii, UniProt A0ABX6CK25); experiment: Bocillin-FL fluorescence polarization competition binding, A. baumannii PBP3; conditions: fluorescence polarization competition binding assay using Bocillin-FL; read-out: A. baumannii PBP3 Potency
T2 sequence (A0ABX6CK25 64-610): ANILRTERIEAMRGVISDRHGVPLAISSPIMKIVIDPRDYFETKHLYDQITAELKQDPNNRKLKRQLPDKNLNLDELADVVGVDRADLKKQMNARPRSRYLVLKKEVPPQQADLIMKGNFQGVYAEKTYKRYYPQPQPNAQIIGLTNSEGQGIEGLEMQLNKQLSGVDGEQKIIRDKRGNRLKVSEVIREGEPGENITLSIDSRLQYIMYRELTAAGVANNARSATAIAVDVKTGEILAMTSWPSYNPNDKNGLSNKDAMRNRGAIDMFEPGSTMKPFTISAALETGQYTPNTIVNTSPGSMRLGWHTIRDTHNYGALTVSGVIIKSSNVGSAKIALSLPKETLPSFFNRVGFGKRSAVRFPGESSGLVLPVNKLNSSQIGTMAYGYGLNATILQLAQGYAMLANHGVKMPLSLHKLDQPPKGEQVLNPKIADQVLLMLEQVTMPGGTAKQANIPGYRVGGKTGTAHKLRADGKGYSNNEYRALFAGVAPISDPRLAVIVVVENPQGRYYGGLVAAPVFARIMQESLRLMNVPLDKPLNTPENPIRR
Method in brief: as §1

[3] = biological target: T3, PBP3 from Escherichia coli (K-12) (Escherichia coli, UniProt P0AD68); experiment: Bocillin-FL fluorescence polarization competition binding, E. coli PBP3
T3 construct: made in house
T3 sequence (P0AD68 1-577): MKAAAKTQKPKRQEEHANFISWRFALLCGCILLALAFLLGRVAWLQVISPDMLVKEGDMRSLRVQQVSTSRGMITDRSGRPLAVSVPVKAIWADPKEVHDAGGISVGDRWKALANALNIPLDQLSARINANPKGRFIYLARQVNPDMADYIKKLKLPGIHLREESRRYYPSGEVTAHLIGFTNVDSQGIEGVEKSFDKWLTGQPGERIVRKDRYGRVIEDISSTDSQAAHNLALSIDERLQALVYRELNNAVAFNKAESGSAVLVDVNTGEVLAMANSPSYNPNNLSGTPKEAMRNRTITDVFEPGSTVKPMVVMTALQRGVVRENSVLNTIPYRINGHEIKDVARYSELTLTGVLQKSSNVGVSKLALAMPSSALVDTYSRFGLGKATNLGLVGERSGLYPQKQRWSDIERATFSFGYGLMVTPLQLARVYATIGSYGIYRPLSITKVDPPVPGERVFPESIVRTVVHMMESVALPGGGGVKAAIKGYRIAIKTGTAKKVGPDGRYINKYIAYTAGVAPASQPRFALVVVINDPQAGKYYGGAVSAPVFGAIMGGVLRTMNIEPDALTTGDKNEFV
Method in brief: as §1

Row | Structure (SMILES) | MIC (N. gonorrhoeae WHO G) [µg/mL] | IC50 [1] [µM] | IC50 [2] [µM] | EC50 [3] [µM]
1 | O=C(NCCS(=O)(=O)N1CCN(C(=O)NC(C(=O)N[C@H]2Cc3ccc(F)c(C(=O)O)c3OB2O)c2cc(F)c(O)c(O)c2Cl)C1=O)Nc1ccc(O)cc1 (stereo partly drawn) [Example 289, (3R)-3-(2-(2-chloro-5-fluoro-3,4-dihydroxyphenyl)-2-(3-((2-(3-(4-hydroxyphenyl)ureido)ethyl)sulfonyl)-2-oxoimidazolidine-1-carboxamido)acetamido)-7-fluoro-2-hydroxy-3,4-dihydro-2H-benzo[e][1,2]oxaborinine-8-carboxylic acid] | 4 to 8 (≈ 5.02 to 10 µM) | > 250 | < 10 | < 10
2 | O=C(NCCCS(=O)(=O)N1CCN(C(=O)NC(C(=O)N[C@H]2Cc3ccc(F)c(C(=O)O)c3OB2O)c2cc(F)c(O)c(O)c2Cl)C1=O)Nc1cccnc1 (stereo partly drawn) [Example 278, (3R)-3-(2-(2-chloro-5-fluoro-3,4-dihydroxyphenyl)-2-(2-oxo-3-((3-(3-(pyridin-3-yl)ureido)propyl)sulfonyl)imidazolidine-1-carboxamido)acetamido)-7-fluoro-2-hydroxy-3,4-dihydro-2H-benzo[e][1,2]oxaborinine-8-carboxylic acid] | 16 to 32 (≈ 20.1 to 40.2 µM) | > 250 | < 10 | < 10
3 | O=C(NCCS(=O)(=O)N1CCN(C(=O)N[C@@H](C(=O)N[C@H]2Cc3ccc(F)c(C(=O)O)c3OB2O)c2cc(F)c(O)c(O)c2Cl)C1=O)Nc1ccncc1 [Example 290, (R)-3-((R)-2-(2-chloro-5-fluoro-3,4-dihydroxyphenyl)-2-(2-oxo-3-((2-(3-(pyridin-4-yl)ureido)ethyl)sulfonyl)imidazolidine-1-carboxamido)acetamido)-7-fluoro-2-hydroxy-3,4-dihydro-2H-benzo[e][1,2]oxaborinine-8-carboxylic acid] | 16 to 32 (≈ 20.5 to 40.9 µM) | > 250 | < 10 | < 10
4 | O=C(NCCCN1CCN(C(=O)NC(C(=O)N[C@H]2Cc3ccc(F)c(C(=O)O)c3OB2O)c2cc(F)c(O)c(O)c2Cl)C1=O)Nc1ccncc1 (stereo partly drawn) [Example 285, (3R)-3-(2-(2-chloro-5-fluoro-3,4-dihydroxyphenyl)-2-(2-oxo-3-(3-(3-(pyridin-4-yl)ureido)propyl)imidazolidine-1-carboxamido)acetamido)-7-fluoro-2-hydroxy-3,4-dihydro-2H-benzo[e][1,2]oxaborinine-8-carboxylic acid] | > 64 | > 250 | < 10 | 10 to 50
5 | Cc1cc(C(=O)NCCCN2CCN(C(=O)NC(C(=O)N[C@H]3Cc4ccc(F)c(C(=O)O)c4OB3O)c3cc(F)c(O)c(O)c3Cl)C(=O)C2=O)c(F)cn1 (stereo partly drawn) [Example 301, (3R)-3-(2-(2-chloro-5-fluoro-3,4-dihydroxyphenyl)-2-(4-(3-(5-fluoro-2-methylisonicotinamido)propyl)-2,3-dioxopiperazine-1-carboxamido)acetamido)-7-fluoro-2-hydroxy-3,4-dihydro-2H-benzo[e][1,2]oxaborinine-8-carboxylic acid] | 16 to 32 (≈ 20.6 to 41.2 µM) | > 250 | < 10 | < 10
6 | O=C(NCCCN1CCN(C(=O)N[C@H](C(=O)N[C@H]2Cc3ccc(F)c(C(=O)O)c3OB2O)c2cc(F)c(O)c(O)c2Cl)C(=O)C1=O)c1cccc(O)c1Cl [Example 302, (R)-3-((S)-2-(4-(3-(2-chloro-3-hydroxybenzamido)propyl)-2,3-dioxopiperazine-1-carboxamido)-2-(2-chloro-5-fluoro-3,4-dihydroxyphenyl)acetamido)-7-fluoro-2-hydroxy-3,4-dihydro-2H-benzo[e][1,2]oxaborinine-8-carboxylic acid] | > 64 | > 250 | 50 to 250 | > 250
7 | O=C(NCCCN1CCN(C(=O)N[C@H](C(=O)N[C@H]2Cc3ccc(F)c(C(=O)O)c3OB2O)c2cc(F)c(O)c(O)c2Cl)C(=O)C1=O)c1ccnc(F)c1F [Example 299, (R)-3-((S)-2-(2-chloro-5-fluoro-3,4-dihydroxyphenyl)-2-(4-(3-(2,3-difluoroisonicotinamido)propyl)-2,3-dioxopiperazine-1-carboxamido)acetamido)-7-fluoro-2-hydroxy-3,4-dihydro-2H-benzo[e][1,2]oxaborinine-8-carboxylic acid] | > 64 | > 250 | 10 to 50 | > 250
8 | O=C(NCCCN1CCN(C(=O)N[C@@H](C(=O)N[C@H]2Cc3ccc(F)c(C(=O)O)c3OB2O)c2cc(F)c(O)c(O)c2Cl)C(=O)C1=O)c1ccnc(F)c1F [Example 300, (R)-3-((R)-2-(2-chloro-5-fluoro-3,4-dihydroxyphenyl)-2-(4-(3-(2,3-difluoroisonicotinamido)propyl)-2,3-dioxopiperazine-1-carboxamido)acetamido)-7-fluoro-2-hydroxy-3,4-dihydro-2H-benzo[e][1,2]oxaborinine-8-carboxylic acid] | 16 to 32 (≈ 20.5 to 41 µM) | > 250 | < 10 | < 10
9 | O=C(NCCS(=O)(=O)N1CCN(C(=O)N[C@@H](C(=O)N[C@H]2Cc3ccc(F)c(C(=O)O)c3OB2O)c2cc(F)c(O)c(O)c2Cl)C1=O)c1ccc(O)cc1 [Example 287, (R)-3-((R)-2-(2-chloro-5-fluoro-3,4-dihydroxyphenyl)-2-(3-((2-(4-hydroxybenzamido)ethyl)sulfonyl)-2-oxoimidazolidine-1-carboxamido)acetamido)-7-fluoro-2-hydroxy-3,4-dihydro-2H-benzo[e][1,2]oxaborinine-8-carboxylic acid] | 4 to 8 (≈ 5.12 to 10.2 µM) | > 250 | < 10 | < 10
10 | Cc1cc(C(=O)NCCCN2CCN(C(=O)N[C@@H](C(=O)N[C@H]3Cc4ccc(F)c(C(=O)O)c4OB3O)c3cc(F)c(O)c(O)c3Cl)C(=O)C2=O)ccn1 [Example 298, (R)-3-((R)-2-(2-chloro-5-fluoro-3,4-dihydroxyphenyl)-2-(4-(3-(2-methylisonicotinamido)propyl)-2,3-dioxopiperazine-1-carboxamido)acetamido)-7-fluoro-2-hydroxy-3,4-dihydro-2H-benzo[e][1,2]oxaborinine-8-carboxylic acid] | 16 to 32 (≈ 21.1 to 42.2 µM) | > 250 | < 10 | < 10
11 | O=C(NCCCN1CCN(C(=O)NC(C(=O)N[C@H]2Cc3ccc(F)c(C(=O)O)c3OB2O)c2cc(F)c(O)c(O)c2Cl)C(=O)C1=O)c1ccc(O)cc1O (stereo partly drawn) [Example 307, (3R)-3-(2-(2-chloro-5-fluoro-3,4-dihydroxyphenyl)-2-(4-(3-(2,4-dihydroxybenzamido)propyl)-2,3-dioxopiperazine-1-carboxamido)acetamido)-7-fluoro-2-hydroxy-3,4-dihydro-2H-benzo[e][1,2]oxaborinine-8-carboxylic acid] | 16 to 32 (≈ 20.6 to 41.2 µM) | > 250 | < 10 | < 10
12 | O=C(NCCN1CCN(C(=O)N[C@@H](C(=O)N[C@H]2Cc3ccc(F)c(C(=O)O)c3OB2O)c2cc(F)c(O)c(O)c2Cl)C1=O)Nc1ccc(O)cc1 [Example 279, (R)-3-((R)-2-(2-chloro-5-fluoro-3,4-dihydroxyphenyl)-2-(3-(2-(3-(4-hydroxyphenyl)ureido)ethyl)-2-oxoimidazolidine-1-carboxamido)acetamido)-7-fluoro-2-hydroxy-3,4-dihydro-2H-benzo[e][1,2]oxaborinine-8-carboxylic acid] | 4 to 8 (≈ 5.46 to 10.9 µM) | > 250 | < 10 | < 10
